According to patent US10538554B2, “Peptides and uses therefor as antiviral agents” (priority 2015, dated 2020):
Bridge positions count the residues as written; N and C are the ends. Square brackets hold non-standard residues; d marks the D form. Peptide text beside a SMILES is read from it.

Key:
[1] = system: H9N2 A/Iran/16/2000; conditions: 48 h, 500 μM
[2] = system: H1N1 A1/Malaysia/302/1954; conditions: A1/Malaysia/302/1954, 48 h, 500 μM
[3] = system: H3N8 A/Miami/2/63; conditions: A/Miami/2/63, 48 h, 500 μM
[4] = system: H3N2 A/HK/8/1968; conditions: A/HK/8/1968, 48 h, 500 μM

In the case of `C[C@H](O)[C@H]1NC(=O)[C@H](N)CSSC[C@H](C(=O)O)NC(=O)[C@@H](CC(N)=O)NC(=O)[C@@H](C)NC(=O)[C@@H](Cc2ccccc2)NC(=O)[C@@H](CCCNC(=N)N)NC(=O)[C@@H](CO)NC(=O)[C@@H](CCCCN)NC1=O` [PSP 1, H-ctksrfanc-OH] (H-[dC][dT][dK][dS][dR][dF][dA][dN][dC]-OH; disulfide 1-9), the “% inhibition H9N2” value [1] is reported as 36.4%, the “% inhibition H1N1” value [2] is reported as 29.4% and the “% inhibition H3N8” value [3] is reported as 79.4%. The “% inhibition H3N2” value [4] was 70.4%.

With `C[C@H](O)[C@H]1NC(=O)[C@H](N)CSSC[C@H](C(=O)O)NC(=O)[C@@H](CC(N)=O)NC(=O)[C@@H](CC(=O)O)NC(=O)[C@@H](Cc2ccccc2)NC(=O)[C@@H](CCCNC(=N)N)NC(=O)[C@@H](CO)NC(=O)[C@@H](CCCCN)NC1=O` [PSP 3, H-ctksrfdnc-OH] (H-[dC][dT][dK][dS][dR][dF][dD][dN][dC]-OH; disulfide 1-9) the “% inhibition H9N2” value [1] was greater than 50%, the “% inhibition H1N1” value [2] was 29.4% and the “% inhibition H3N8” value [3] was 67%. For the same molecule, the “% inhibition H3N2” value [4] was 74.1%.

`C[C@H](O)[C@H]1NC(=O)[C@H](N)CSSC[C@H](C(=O)O)NC(=O)[C@@H](CC(N)=O)NC(=O)[C@@H](CCC(=O)O)NC(=O)[C@@H](Cc2ccccc2)NC(=O)[C@@H](CCCNC(=N)N)NC(=O)[C@@H](CO)NC(=O)[C@@H](CCCCN)NC1=O` [PSP 4, H-ctksrfenc-OH] (H-[dC][dT][dK][dS][dR][dF][dE][dN][dC]-OH; disulfide 1-9) was tested, and the “% inhibition H1N1” value [2] was 52.9%, the “% inhibition H3N8” value [3] was 64% and the “% inhibition H3N2” value [4] was 22.7%.

For `C[C@H](O)[C@H]1NC(=O)[C@H](N)CSSC[C@H](C(=O)O)NC(=O)[C@@H](CC(N)=O)NC(=O)[C@@H](Cc2ccccc2)NC(=O)[C@@H](Cc2ccccc2)NC(=O)[C@@H](CCCNC(=N)N)NC(=O)[C@@H](CO)NC(=O)[C@@H](CCCCN)NC1=O` [PSP 5, H-ctksrffnc-OH] (H-[dC][dT][dK][dS][dR][dF][dF][dN][dC]-OH; disulfide 1-9), the “% inhibition H1N1” value [2] was 47.1%, the “% inhibition H3N8” value [3] was 77.3% and the “% inhibition H3N2” value [4] was 45.5%.

`C[C@H](O)[C@H]1NC(=O)[C@H](N)CSSC[C@H](C(=O)O)NC(=O)[C@@H](CC(N)=O)NC(=O)[C@@H](Cc2c[nH]cn2)NC(=O)[C@@H](Cc2ccccc2)NC(=O)[C@@H](CCCNC(=N)N)NC(=O)[C@@H](CO)NC(=O)[C@@H](CCCCN)NC1=O` [PSP 7, H-ctksrfhnc-OH] (H-[dC][dT][dK][dS][dR][dF][dH][dN][dC]-OH; disulfide 1-9) was tested, and the “% inhibition H9N2” value [1] was 31.8%, the “% inhibition H1N1” value [2] was 23.5% and the “% inhibition H3N8” value [3] was 76.3%. For the same molecule, the “% inhibition H3N2” value [4] was 81.8%.

With `CC[C@@H](C)[C@H]1NC(=O)[C@@H](Cc2ccccc2)NC(=O)[C@@H](CCCNC(=N)N)NC(=O)[C@@H](CO)NC(=O)[C@@H](CCCCN)NC(=O)[C@@H]([C@H](C)O)NC(=O)[C@H](N)CSSC[C@H](C(=O)O)NC(=O)[C@@H](CC(N)=O)NC1=O` [PSP 8, H-ctksrfinc-OH] (H-[dC][dT][dK][dS][dR][dF][dI][dN][dC]-OH; disulfide 1-9) the “% inhibition H9N2” value [1] was 90.9%, the “% inhibition H1N1” value [2] was 79.4% and the “% inhibition H3N8” value [3] was 83.5%. For the same molecule, the “% inhibition H3N2” value [4] was 90.9%.

`CC(C)C[C@H]1NC(=O)[C@@H](Cc2ccccc2)NC(=O)[C@@H](CCCNC(=N)N)NC(=O)[C@@H](CO)NC(=O)[C@@H](CCCCN)NC(=O)[C@@H]([C@H](C)O)NC(=O)[C@H](N)CSSC[C@H](C(=O)O)NC(=O)[C@@H](CC(N)=O)NC1=O` [PSP 10, H-ctksrflnc-OH] (H-[dC][dT][dK][dS][dR][dF][dL][dN][dC]-OH; disulfide 1-9) was tested, and the “% inhibition H9N2” value [1] was 50%, the “% inhibition H1N1” value [2] was 88.2% and the “% inhibition H3N8” value [3] was 82.5%. The “% inhibition H3N2” value [4] was 95.5%.

With `C[C@H](O)[C@H]1NC(=O)[C@H](N)CSSC[C@H](C(=O)O)NC(=O)[C@@H](CC(N)=O)NC(=O)[C@H]2CCCN2C(=O)[C@@H](Cc2ccccc2)NC(=O)[C@@H](CCCNC(=N)N)NC(=O)[C@@H](CO)NC(=O)[C@@H](CCCCN)NC1=O` [PSP 13, H-ctksrfpnc-OH] (H-[dC][dT][dK][dS][dR][dF][dP][dN][dC]-OH; disulfide 1-9) the “% inhibition H9N2” value [1] was 18.2%, the “% inhibition H1N1” value [2] was 32.7% and the “% inhibition H3N8” value [3] was 70.1%. The “% inhibition H3N2” value [4] was 29.6%.
